# Data published in patent publication US20260183297A1, “SELECTION OF PATIENTS FOR THE TREATMENT OF FADS1-MEDIATED DISEASES OR DISORDERS USING FADS-1 INHIBITORS” (AMGEN INC., priority 2022, published 2026).
# Marks after values point to notes of the source that are not given here.
# Experiment: Fatty acid concentration and composition of plasma lipid subfractions (GC) of Compound A-treated DIO mice
# Format: in vivo, mouse
# Procedure: FIG. 16(b) provides fatty acid composition of total plasma and each of the 4 plasma lipid subfractions of vehicle treated (WT) and 30 mg/kg Compound A-treated WT DIO mice (WT+A). (a-b) n=3 samples per group (each sample pooled from 2 mice). (a) Data are shown as minimum to maximum. t-test *P<0.05, **P<0.01, ***P<0.001.
# [1] = DIO mouse plasma, Cholesterol ester, 30 mg/kg, GC, mean
# [2] = DIO mouse plasma, Cholesterol ester, 30 mg/kg, GC, mean % composition
# [3] = DIO mouse plasma, Free fatty acids, 30 mg/kg, GC, mean
# [4] = DIO mouse plasma, Free fatty acids, 30 mg/kg, GC, mean % composition
# [5] = DIO mouse plasma, Phospholipids, 30 mg/kg, GC, mean
# [6] = DIO mouse plasma, Phospholipids, 30 mg/kg, GC, mean % composition
smiles,measurement,setting,value
"COc1ccn2c(=O)c(-c3cnn(CC(F)(F)C(F)(F)F)c3)c(C(F)(F)F)nc2c1 [Compound A, 8-methoxy-3-(1-(2,2,3,3,3-pentafluoropropyl)-1H-pyrazol-4-yl)-2-(trifluoromethyl)-4H-pyrido[1,2-a]pyrimidin-4-one]",EPA/AA ratio in all four lipid subfractions,"Compound A-treated DIO mice, plasma",increased
same,"C14:0 concentration, Cholesterol ester",[1],29.9 µg/mL
same,"C16:0 concentration, Cholesterol ester",[1],90.5 µg/mL
same,"C16:1n7 concentration, Cholesterol ester",[1],27.7 µg/mL
same,"C16:1n7t concentration, Cholesterol ester",[1],2.6 µg/mL
same,"C18:0 concentration, Cholesterol ester",[1],50.3 µg/mL
same,"C18:1n9 concentration, Cholesterol ester",[1],113 µg/mL
same,"C18:1t concentration, Cholesterol ester",[1],8.1 µg/mL
same,"C18:2n6 concentration, Cholesterol ester",[1],516 µg/mL
same,"C18:2n6t concentration, Cholesterol ester",[1],10.4* μg mL^−1
same,"C18:3n3 concentration, Cholesterol ester",[1],3.0 µg/mL
same,"C18:3n6 concentration, Cholesterol ester",[1],20.4* μg mL^−1
same,"C20:0 concentration, Cholesterol ester",[1],1.2 µg/mL
same,"C20:1n9 concentration, Cholesterol ester",[1],0.6 µg/mL
same,"C20:2n6 concentration, Cholesterol ester",[1],1.4 µg/mL
same,"C20:3n6 concentration, Cholesterol ester",[1],124*** μg mL^−1
same,"C20:5n3 concentration, Cholesterol ester",[1],2.8* μg mL^−1
same,"C22:0 concentration, Cholesterol ester",[1],1.3 µg/mL
same,"C22:4n6 concentration, Cholesterol ester",[1],1.5 µg/mL
same,"C22:5n3 concentration, Cholesterol ester",[1],31.0 µg/mL
same,"C22:5n6 concentration, Cholesterol ester",[1],1.7 µg/mL
same,"C22:6n3 concentration, Cholesterol ester",[1],37.4* μg mL^−1
same,"C24:0 concentration, Cholesterol ester",[1],1.2 µg/mL
same,"C24:1n9 concentration, Cholesterol ester",[1],2.6 µg/mL
same,"Total fatty acids concentration, Cholesterol ester",[1],1150* μg mL^−1
same,"C14:0 composition, Cholesterol ester",[2],2.61* %
same,"C16:0 composition, Cholesterol ester",[2],7.89*** %
same,"C16:1n7 composition, Cholesterol ester",[2],2.39* %
same,"C16:1n7t composition, Cholesterol ester",[2],0.23** %
same,"C18:0 composition, Cholesterol ester",[2],4.41* %
same,"C18:1n9 composition, Cholesterol ester",[2],9.73* %
same,"C18:1t composition, Cholesterol ester",[2],0.7*** %
same,"C18:2n6 composition, Cholesterol ester",[2],44.7*** %
same,"C18:2n6t composition, Cholesterol ester",[2],0.9*** %
same,"C18:3n3 composition, Cholesterol ester",[2],0.27%
same,"C18:3n6 composition, Cholesterol ester",[2],1.76*** %
same,"C20:0 composition, Cholesterol ester",[2],0.1%
same,"C20:1n9 composition, Cholesterol ester",[2],0.05%
same,"C20:2n6 composition, Cholesterol ester",[2],0.12%
same,"C20:3n6 composition, Cholesterol ester",[2],10.8*** %
same,"C20:4n6 composition, Cholesterol ester",[2],6.34*** %
same,"C20:5n3 composition, Cholesterol ester",[2],0.25%
same,"C22:0 composition, Cholesterol ester",[2],0.12%
same,"C22:4n6 composition, Cholesterol ester",[2],0.13%
same,"C22:5n3 composition, Cholesterol ester",[2],2.71* %
same,"C22:5n6 composition, Cholesterol ester",[2],0.14%
same,"C22:6n3 composition, Cholesterol ester",[2],3.26** %
same,"C24:0 composition, Cholesterol ester",[2],0.11%
same,"C24:1n9 composition, Cholesterol ester",[2],0.23%
same,"C14:0 concentration, Free fatty acids",[3],18.8 µg/mL
same,"C16:0 concentration, Free fatty acids",[3],132.7 µg/mL
same,"C16:1n7 concentration, Free fatty acids",[3],8.7 µg/mL
same,"C16:1n7t concentration, Free fatty acids",[3],0.5 µg/mL
same,"C18:0 concentration, Free fatty acids",[3],76.8 µg/mL
same,"C18:1n9 concentration, Free fatty acids",[3],98.1* μg mL^−1
same,"C18:1t concentration, Free fatty acids",[3],2.5 µg/mL
same,"C18:2n6 concentration, Free fatty acids",[3],38.5 µg/mL
same,"C18:2n6t concentration, Free fatty acids",[3],3.3 µg/mL
same,"C18:3n3 concentration, Free fatty acids",[3],1.6 µg/mL
same,"C18:3n6 concentration, Free fatty acids",[3],1.2 µg/mL
same,"C20:0 concentration, Free fatty acids",[3],1.8 µg/mL
same,"C20:1n9 concentration, Free fatty acids",[3],2.8 µg/mL
same,"C20:2n6 concentration, Free fatty acids",[3],1.1 µg/mL
same,"C20:3n6 concentration, Free fatty acids",[3],8.1** μg mL^−1
same,"C20:4n6 concentration, Free fatty acids",[3],2.9*** μg mL^−1
same,"C20:5n3 concentration, Free fatty acids",[3],8.3 µg/mL
same,"C22:0 concentration, Free fatty acids",[3],1.4 µg/mL
same,"C22:4n6 concentration, Free fatty acids",[3],1.1* μg mL^−1
same,"C22:5n3 concentration, Free fatty acids",[3],32.0 µg/mL
same,"C22:5n6 concentration, Free fatty acids",[3],0.4 µg/mL
same,"C22:6n3 concentration, Free fatty acids",[3],5.3 µg/mL
same,"C24:0 concentration, Free fatty acids",[3],1.0 µg/mL
same,"C24:1n9 concentration, Free fatty acids",[3],1.8 µg/mL
same,"Total fatty acids concentration, Free fatty acids",[3],451 µg/mL
same,"C14:0 composition, Free fatty acids",[4],4.15%
same,"C16:0 composition, Free fatty acids",[4],29.5%
same,"C16:1n7 composition, Free fatty acids",[4],1.91%
same,"C16:1n7t composition, Free fatty acids",[4],0.11%
same,"C18:0 composition, Free fatty acids",[4],17.1* %
same,"C18:1n9 composition, Free fatty acids",[4],21.8%
same,"C18:1t composition, Free fatty acids",[4],0.57%
same,"C18:2n6 composition, Free fatty acids",[4],8.61%
same,"C18:2n6t composition, Free fatty acids",[4],0.76%
same,"C18:3n3 composition, Free fatty acids",[4],0.34%
same,"C18:3n6 composition, Free fatty acids",[4],0.26* %
same,"C20:0 composition, Free fatty acids",[4],0.39%
same,"C20:1n9 composition, Free fatty acids",[4],0.61%
same,"C20:2n6 composition, Free fatty acids",[4],0.25%
same,"C20:3n6 composition, Free fatty acids",[4],1.82%
same,"C20:4n6 composition, Free fatty acids",[4],0.64*** %
same,"C20:5n3 composition, Free fatty acids",[4],1.75%
same,"C22:0 composition, Free fatty acids",[4],0.31%
same,"C22:4n6 composition, Free fatty acids",[4],0.25* %
same,"C22:5n3 composition, Free fatty acids",[4],7.14%
same,"C22:5n6 composition, Free fatty acids",[4],0.10%
same,"C22:6n3 composition, Free fatty acids",[4],1.15%
same,"C24:0 composition, Free fatty acids",[4],0.22%
same,"C24:1n9 composition, Free fatty acids",[4],0.39%
same,"C14:0 concentration, Phospholipids",[5],5.3 µg/mL
same,"C16:0 concentration, Phospholipids",[5],591 µg/mL
same,"C16:1n7 concentration, Phospholipids",[5],7.7 µg/mL
same,"C18:0 concentration, Phospholipids",[5],302*** μg mL^−1
same,"C18:1n9 concentration, Phospholipids",[5],260 µg/mL
same,"C18:1t concentration, Phospholipids",[5],3.9 µg/mL
same,"C18:2n6 concentration, Phospholipids",[5],400** μg mL^−1
same,"C18:2n6t concentration, Phospholipids",[5],4.5 µg/mL
same,"C18:3n3 concentration, Phospholipids",[5],1.0 µg/mL
same,"C18:3n6 concentration, Phospholipids",[5],4.3 µg/mL
same,"C20:0 concentration, Phospholipids",[5],1.4** μg mL^−1
same,"C20:1n9 concentration, Phospholipids",[5],5.8 µg/mL
same,"C20:2n6 concentration, Phospholipids",[5],9.0 µg/mL
same,"C20:3n6 concentration, Phospholipids",[5],382*** μg mL^−1
same,"C20:4n6 concentration, Phospholipids",[5],31.2*** μg mL^−1
same,"C20:5n3 concentration, Phospholipids",[5],1.2* μg mL^−1
same,"C22:0 concentration, Phospholipids",[5],1.8 µg/mL
same,"C22:4n6 concentration, Phospholipids",[5],2.1*** μg mL^−1
same,"C22:5n3 concentration, Phospholipids",[5],12.8 µg/mL
same,"C22:5n6 concentration, Phospholipids",[5],1.8*** μg mL^−1
same,"C22:6n3 concentration, Phospholipids",[5],70.2** μg mL^−1
same,"C24:0 concentration, Phospholipids",[5],1.0 µg/mL
same,"C24:1n9 concentration, Phospholipids",[5],3.3 µg/mL
same,"Total fatty acids concentration, Phospholipids",[5],2105* μg mL^−1
same,"C14:0 composition, Phospholipids",[6],0.25* %
same,"C16:0 composition, Phospholipids",[6],28.1** %
same,"C16:1n7 composition, Phospholipids",[6],0.36** %
